Like-named read-outs stand apart in the source and are kept apart here.
What was measured:
[1] = target: T1, mitochondrial F0F1-ATPase (Saccharomyces cerevisiae, UniProt P00830+P07251+P38077); assay: F0F1-ATPase inhibition assay in isolated yeast mitochondria (20 minute cell-free assay); type: biochemical; details: for F0F1-ATPase inhibitory activity (in words): comparison
T1 construct: endogenous in cells; host or cells: isolated yeast mitochondria (cell-free preparation)
Protocol: The ability of isoapoptolidin and the apoptolidin derivatives described in Examples 3 and 4 to inhibit F0F1-ATPase in isolated yeast mitochondria was studied. The F0F1-ATPase assay is a rapid 20 minute cell-free assay.
The functionalized macrolide and δ-lactone fragments were assayed for inhibitory activity against mitochondrial F0F1-ATPase.

[2] = Apoptolidin-isoapoptolidin equilibrium kinetics in PBS at 37° C. (reverse-phase HPLC); type: physicochemical; details: solution starting from the labelled isomer (Q(t) = 0 at t = 0: apoptolidin, Q(t) = ∞ at t = 0: isoapoptolidin); for k1: apoptolidin to isoapoptolidin; for k−1: isoapoptolidin to apoptolidin
Protocol: (§1) To measure the kinetic parameters of apoptolidin and isoapoptolidin, solutions of both compounds in PBS (Dulbecco's phosphate buffered saline) were prepared and incubated at 37° C. in sealed reaction vessels. Periodically, the components present in the solutions were quantified using reverse-phase HPLC. Baseline separation was achieved using a 150×4.6 mm C18/5μ column eluting with a water/acetonitrile gradient from 40% to 90% over 30 min. After normalization for the difference in extinction coefficients (λobs=254 nm), these values were plotted and the rate constants k1 and k−1 were extracted by fitting the data to the integrated rate expression for a simple equilibrium. The kinetic parameters for apoptolidin and isoapoptolidin equilibrium over time in PBS at 37° C. The relative amounts of apoptolidin and isoapoptolidin at various time points are plotted in FIG. 2.

[3] = Stability of solutions on storage (NMR, HPLC, UV-vis); type: physicochemical; details: for conversion in dilute aqueous solution: ambient temperature, HPLC or UV-vis
From the text: To study the kinetic parameters of isoapoptolidin, the conversion between apoptolidin and isoapoptolidin under biological assay and chemical isolation conditions was observed. […] During this time, no conversion to isoapoptolidin is observed, either by NMR or HPLC. […] Given that the conversion between apoptolidin and isoapoptolidin goes in both directions, it is likely that these two compounds are in equilibrium.

[4] = system: 60 human cancer cell lines (NCI 60); details: of 37,000 compounds tested by the National Cancer Institute; cited from earlier work
[5] = system: rat glial cells transformed with the adenovirus E1A or E1A/E1B19K/E1B54K oncogenes; details: Seto et al., 1997; cited from earlier work
[6] = system: untransformed rat glial cells; details: Seto et al., 1997; cited from earlier work
normal fibroblasts = details: Seto et al., 1997; cited from earlier work
[7] = Stability in the presence of all F0F1-ATPase assay components; type: physicochemical; details: up to 24 hours
Protocol: To test the ability of isoapoptolidin to inhibit F0F1-ATPase activity, solutions of isoapoptolidin and apoptolidin including all assay components were analyzed for isomerization. After 20 minutes at 37° C., less than 12% conversion was detected.
To test the ability of apoptolidin derivatives to inhibit F0F1-ATPase activity, compound 16 from Table 3 was exposed to all of the assay components for up to 24 hours.

Stability in PBS (LC-MS) = type: physicochemical; details: conditions that promote apoptolidin/isoapoptolidin isomerization
Protocol: as §1
This experiment leads to the conclusion that while derivatization of apoptolidin at C-20 blocks isomerization to isoapoptolidin, the resulting derivatives (compounds 18 and 20) undergo other transformations.

[8] = Isomerization in basic CD3OD (LCMS and NMR); type: physicochemical
From the text: To prevent ring expansion, the primary alcohol may be efficiently converted to a methyl ether or benzoate ester by way of treatment with Meerwein's salt or benzoyl anhydride followed by deprotection, under this procedure, the following macrocycles resulted, respectively: Compound 23: Q^1=Q^2=Q^3=Q^4=Q^5=Q^7=H; Q^6=R^1=R^2=R^3=R^4=CH3 Compound 24: Q^1=Q^2=Q^3=Q^4=Q^5=Q^7=H; Q^6=[…]; R^1=R^2=R^3=R^4=CH3

COC[C@@H](C[C@H]1O[C@@](O)([C@H](O)[C@@H]2C[C@H](OC)[C@@H](O)CC/C=C(C)/C=C/[C@@H](O[C@@H]3O[C@@H](C)[C@H](OC)[C@@H](O)[C@@H]3O)[C@H](C)/C=C(C)/C=C(C)/C=C(\C)C(=O)O2)[C@H](C)[C@@H](O)[C@H]1C)O[C@H]1C[C@](C)(O)[C@@H](O[C@H]2C[C@@H](OC)[C@H](O)[C@@H](C)O2)[C@H](C)O1 [Apoptolidin]
IC50 [1]: 0.7 ± 0.5 µM | Keq [2]: 0.0616 | k1 [2]: 0.0656 h⁻¹ | k−1 [2]: 0.106 h⁻¹ | conversion in dilute aqueous solution [3]: convert to isoapoptolidin | stable in solution (no conversion to isoapoptolidin by NMR or HPLC) ([3]; −20° C., dissolved in chloroform or methylene chloride): up to three months | rank of selectivity among cytotoxic agents [4]: among the top 0.1% most selective cytotoxic agents | induction of apoptosis [5]: capable of inducing apoptosis | cytotoxic effect [6]: no cytotoxic effect | cytotoxic effect (normal fibroblasts): no cytotoxic effect

COC[C@@H](C[C@H]1O[C@@](OC)([C@H](O)[C@@H]2C[C@H](OC)[C@@H](O)CC/C=C(C)/C=C/[C@@H](O[C@@H]3O[C@@H](C)[C@H](OC)[C@@H](O)[C@@H]3O)[C@H](C)/C=C(C)/C=C(C)/C=C(\C)C(=O)O2)[C@H](C)[C@@H](O)[C@H]1C)O[C@H]1C[C@](C)(O)[C@@H](O[C@H]2C[C@@H](OC)[C@H](O)[C@@H](C)O2)[C@H](C)O1 [Compound 1]
IC50 [1]: 2.3 ± 0.5 µM

COC[C@@H](C[C@H]1O[C@@](O)([C@H](O)[C@@H]2C[C@H](OC)[C@@H](O)CC/C=C(C)/C=C/[C@@H](O[C@@H]3O[C@@H](C)[C@H](OC)[C@@H](O)[C@@H]3OC(=O)c3ccccc3)[C@H](C)/C=C(C)/C=C(C)/C=C(\C)C(=O)O2)[C@H](C)[C@@H](O)[C@H]1C)O[C@H]1C[C@](C)(O)[C@@H](O[C@H]2C[C@@H](OC)[C@H](O)[C@@H](C)O2)[C@H](C)O1 [Compound 3]
IC50 [1]: 0.3 ± 0.5 µM

COC[C@@H](C[C@H]1O[C@@](O)([C@H](O)[C@@H]2C[C@H](OC)[C@@H](O)CC/C=C(C)/C=C/[C@@H](O[C@@H]3O[C@@H](C)[C@H](OC)[C@@H](O)[C@@H]3O)[C@H](C)/C=C(C)/C=C(C)/C=C(\C)C(=O)O2)[C@H](C)[C@@H](OC(C)=O)[C@H]1C)O[C@H]1C[C@](C)(O)[C@@H](O[C@H]2C[C@@H](OC)[C@H](OC(C)=O)[C@@H](C)O2)[C@H](C)O1 [Compound 14]
IC50 [1]: 0.4 ± 0.5 µM

COC[C@@H](C[C@H]1O[C@@](O)([C@H](O)[C@@H]2C[C@H](OC)[C@@H](O)CC/C=C(C)/C=C/[C@@H](O[C@@H]3O[C@@H](C)[C@H](OC)[C@@H](O)[C@@H]3O)[C@H](C)/C=C(C)/C=C(C)/C=C(\C)C(=O)O2)[C@H](C)[C@@H](O)[C@H]1C)O[C@H]1C[C@](C)(O)[C@@H](O[C@H]2C[C@@H](OC)[C@H](OC(C)=O)[C@@H](C)O2)[C@H](C)O1 [Compound 15]
IC50 [1]: 0.8 ± 0.5 µM

COC[C@@H](C[C@H]1O[C@@](O)([C@H](O)[C@@H]2C[C@H](OC)[C@@H](OC(C)=O)CC/C=C(C)/C=C/[C@@H](O[C@@H]3O[C@@H](C)[C@H](OC)[C@@H](O)[C@@H]3O)[C@H](C)/C=C(C)/C=C(C)/C=C(\C)C(=O)O2)[C@H](C)[C@@H](O)[C@H]1C)O[C@H]1C[C@](C)(O)[C@@H](O[C@H]2C[C@@H](OC)[C@H](O)[C@@H](C)O2)[C@H](C)O1 [Compound 16]
IC50 [1]: 0.8 ± 0.5 µM | hydrolysis (ESIMS) [7]: no hydrolysis was detected

COC[C@@H](C[C@H]1O[C@@](O)([C@H](O)[C@@H]2C[C@H](OC)[C@@H](O)CC/C=C(C)/C=C/[C@@H](O[C@@H]3O[C@@H](C)[C@H](OC)[C@@H](OC(C)=O)[C@@H]3O)[C@H](C)/C=C(C)/C=C(C)/C=C(\C)C(=O)O2)[C@H](C)[C@@H](O)[C@H]1C)O[C@H]1C[C@](C)(O)[C@@H](O[C@H]2C[C@@H](OC)[C@H](O)[C@@H](C)O2)[C@H](C)O1 [Compound 17]
IC50 [1]: 0.4 ± 0.5 µM

COC[C@@H](C[C@H]1O[C@@](O)([C@H](OC(C)=O)[C@@H]2C[C@H](OC)[C@@H](O)CC/C=C(C)/C=C/[C@@H](O[C@@H]3O[C@@H](C)[C@H](OC)[C@@H](O)[C@@H]3O)[C@H](C)/C=C(C)/C=C(C)/C=C(\C)C(=O)O2)[C@H](C)[C@@H](O)[C@H]1C)O[C@H]1C[C@](C)(O)[C@@H](O[C@H]2C[C@@H](OC)[C@H](O)[C@@H](C)O2)[C@H](C)O1 [Compound 18]
IC50 [1]: 1.1 ± 0.5 µM | stability in PBS (Stability in PBS (LC-MS)): unstable under these conditions, producing several new compounds over a five hour period

COC[C@@H](C[C@H]1O[C@@](O)([C@H](OC)[C@@H]2C[C@H](OC)[C@@H](O)CC/C=C(C)/C=C/[C@@H](O[C@@H]3O[C@@H](C)[C@H](OC)[C@@H](O)[C@@H]3O)[C@H](C)/C=C(C)/C=C(C)/C=C(\C)C(=O)O2)[C@H](C)[C@@H](O)[C@H]1C)O[C@H]1C[C@](C)(O)[C@@H](O[C@H]2C[C@@H](OC)[C@H](O)[C@@H](C)O2)[C@H](C)O1 [Compound 20]
IC50 [1]: 2.8 ± 0.5 µM | stability in PBS (Stability in PBS (LC-MS)): partially convert to a second isomeric compound over a period of several hours

CO[C@@H]1[C@@H](O)[C@H](O)[C@H](O[C@@H]2/C=C/C(C)=C/CC[C@H](O)[C@@H](OC)C[C@@H](CO)OC(=O)/C(C)=C/C(C)=C/C(C)=C/[C@H]2C)O[C@H]1C [Compound 22]
IC50 ([1]; Table 6, apoptolidin oxidative cleavage products, mitochondrial F0F1-ATPase, read-out: IC50): 16 ± 5 µM | F0F1-ATPase inhibitory activity (in words) [1]: potency comparable to isoapoptolidin | isomerization to ring expanded isomer [8]: slowly isomerized to its ring expanded isomer

COC[C@@H](C[C@H]1O[C@@](O)([C@@H]2OC(=O)/C(C)=C/C(C)=C/C(C)=C/[C@@H](C)[C@H](O[C@@H]3O[C@@H](C)[C@H](OC)[C@@H](O)[C@@H]3O)/C=C/C(C)=C/CC[C@H](O)[C@@H](OC)C[C@@H]2O)[C@H](C)[C@@H](O)[C@H]1C)O[C@H]1C[C@](C)(O)[C@@H](O[C@H]2C[C@@H](OC)[C@H](O)[C@@H](C)O2)[C@H](C)O1 [Isoapoptolidin]
IC50 [1]: 17 ± 5 µM | F0F1-ATPase inhibitory activity (in words) [1]: reduced F0F1-ATPase inhibitory activity over apoptolidin | Keq [2]: 0.638 | k1 [2]: 0.0626 h⁻¹ | k−1 [2]: 0.0982 h⁻¹ | conversion in dilute aqueous solution [3]: convert to apoptolidin | stable as a solution ([3]; −20° C., methanol): up to six months
